The results in this text go back to patent publication US9980973B2, “Bicyclic heterocycle compounds and their uses in therapy” (ASTEX THERAPEUTICS LIMITED, priority 2012, dated 2018).

Counter-ions that a name gives are not always drawn. Like-named read-outs stand apart in the source and are kept apart here. Some results are limits rather than exact numbers.

For test [1], the target named is T1, BIR3 domain of human XIAP (Homo sapiens, UniProt P98170).
T1 construct: BIR3 domain of human XIAP (residues 252-350) fused to a His-tag; His-tag (cleaved yes); made in house; host or cells: Escherichia coli
T1 sequence (P98170 252-350): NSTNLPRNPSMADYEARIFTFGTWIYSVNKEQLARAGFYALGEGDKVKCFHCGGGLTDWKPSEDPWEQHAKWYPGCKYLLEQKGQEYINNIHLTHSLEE
The test can be described thus: XIAP in vitro competitive displacement binding assay (fluorescence polarization). To be noted: for inhibition at 0.04 µM: 1 h, PI at 0.04 μM, read-out: Xiap IC50 or PI μM (PI).

Test [2] relates to EVSA-T (human breast carcinoma). The test can be described thus: Anti-proliferative activity, Alamar Blue assay, EVSA-T. To be noted: for EC50: Homo sapiens, EVSA-T. It is filed as cell-based. A general note: Alamar Blue is a resazurin reagent that responds to reducing activity.
Setting [3] is: 72 h, EVSA-T cells, 72 hours, Alamar Blue, read-out: EVSA-T prolif.
[4] abbreviates: read-out: EC50 in EVSA-T cell line assays.
Setting [5] is: plain number = IC50, average where more than one data point, read-out: Xiap IC50 or PI μM (IC50).

With `CC1N(C[C@H]2CN[C@H](C)CN2CC(=O)N2CC(C)(C)c3ncc(Cc4ccc(F)cc4)cc32)CCOC1(C)C` (stereo partly drawn) [Example 32, 1-{6-[(4-Fluorophenyl)methyl]-3,3-dimethyl-1H,2H,3H-pyrrolo[3,2-b]pyridin-1-yl}-2-[(2R,5R)-5-methyl-2-[(2,2,3-trimethylmorpholin-4-yl)methyl]piperazin-1-yl]ethan-1-one dihydrochloride], the inhibition at 0.04 µM in test [1] came out at 42%. The EC50 in test [2] (setting [3]) is 0.7 nM; in test [2] (setting [4]), less than 1000 nM.
Take `C[C@@H]1CN(CC(=O)N2CC(C)(C)c3ncc(Cc4ccc(F)cc4)cc32)[C@@H](CN2CCN(C)C(=O)[C@H]2C)CN1` [Example 34, (3R)-4-{[(2R,5R)-1-(2-{6-[(4-Fluorophenyl)methyl]-3,3-dimethyl-1H,2H,3H-pyrrolo[3,2-b]pyridin-1-yl}-2-oxoethyl)-5-methylpiperazin-2-yl]methyl}-1,3-dimethylpiperazin-2-one dihydrochloride]: in test [1], the inhibition at 0.04 µM came to 42%. In addition, the EC50 in test [2] (setting [3]) is 0.85 nM; in test [2] (setting [4]) it was less than 1000 nM.
Regarding `C[C@@H]1CN(CC(=O)N2CC(C)(C)c3ncc(Cc4ccc(F)cc4)cc32)[C@@H](CN2CCNC(=O)[C@H]2C)CN1` [Example 35, (3R)-4-{[(2R,5R)-1-(2-{6-[(4-Fluorophenyl)methyl]-3,3-dimethyl-1H,2H,3H-pyrrolo[3,2-b]pyridin-1-yl}-2-oxoethyl)-5-methylpiperazin-2-yl]methyl}-3-methylpiperazin-2-one], the inhibition at 0.04 µM in test [1] came out at 54%. Also, the IC50 (usually the concentration that inhibits the measured activity by half) in test [1] (or at least 50% inhibition of the activity at 0.1 μM, read-out: IC50 in the XIAP assay) was less than 0.1 µM. Moreover, the EC50 in test [2] (setting [3]) was 1.9 nM; in test [2] (setting [4]), less than 1000 nM.
With `C[C@@H]1CN(CC(=O)N2CC(C)(C)c3ncc(Cc4ccc(F)cc4)cc32)[C@@H](CN2CCC[C@@H]2C(F)(F)F)CN1` [Example 38, 1-{6-[(4-Fluorophenyl)methyl]-3,3-dimethyl-1H,2H,3H-pyrrolo[3,2-b]pyridin-1-yl}-2-[(2R,5R)-5-methyl-2-{[(2R)-2-(trifluoromethyl)pyrrolidin-1-yl]methyl}piperazin-1-yl]ethan-1-one], the IC50 in test [1] (setting [5]) is 0.48 µM. In addition, the results for the EC50 in test [2] (setting [3]) and in test [2] (setting [4]) were 34 nM and less than 1000 nM, respectively.
Regarding `C[C@@H]1CN(CC(=O)N2CC(C)(C)c3ncc(Cc4ccc(F)cc4)cc32)[C@@H](CN2CCNC(=O)C2)CN1` [Example 42, 4-{[(2R,5R)-1-(2-{6-[(4-Fluorophenyl)methyl]-3,3-dimethyl-1H,2H,3H-pyrrolo[3,2-b]pyridin-1-yl}-2-oxoethyl)-5-methylpiperazin-2-yl]methyl}piperazin-2-one dihydrochloride], the inhibition at 0.04 µM in test [1] was 44%. Also, the EC50 was 11 nM in test [2] (setting [3]) and less than 1000 nM in test [2] (setting [4]).
The corresponding values for `CCC(F)(F)c1cnc2c(c1)N(C(=O)CN1C[C@@H](C)NC[C@@H]1CN1[C@H](C)COC[C@H]1C)CC2(C)C` [Example 43, 1-[6-(1,1-Difluoropropyl)-3,3-dimethyl-1H,2H,3H-pyrrolo[3,2-b]pyridin-1-yl]-2-[(2R,5R)-2-{[(3R,5R)-3,5-dimethylmorpholin-4-yl]methyl}-5-methylpiperazin-1-yl]ethan-1-one, dihydrochloride] are 62%, 8.3 nM and less than 1000 nM.
Turning to `CCCC(F)(F)c1cc2c(cn1)C(C)(C)CN2C(=O)CN1C[C@@H](C)NC[C@@H]1CN1[C@H](C)COC[C@H]1C` [Example 44, 1-[6-(1,1-Difluorobutyl)-3,3-dimethyl-1H,2H,3H-pyrrolo[3,2-c]pyridin-1-yl]-2-[2R,5R)-2-{[(3R,5R)-3,5-dimethylmorpholin-4-yl]methyl}-5-methylpiperazin-1-yl]ethan-1-one, dihydrochloride], the inhibition at 0.04 µM in test [1] turned out to be 78%. Further, the EC50 in test [2] (setting [3]) is 1 nM; in test [2] (setting [4]) it was less than 1000 nM.
Consider `CC1COCCN1C[C@H]1CN[C@H](C)CN1CC(=O)N1CC(C)(C)c2ccc(Cc3ccc(F)cc3)cc21` (stereo partly drawn) [Example 45, 1-{6-[(4-Fluorophenyl)methyl]-3,3-dimethyl-2,3-dihydro-1H-indol-1-yl}-2-[(2R,5R)-5-methyl-2-{[(3R)-3-methylmorpholin-4-yl]methyl}piperazin-1-yl]ethan-1-one, dihydrochloride], for which the inhibition at 0.04 µM in test [1] stood at 52%. In addition, the EC50 was 3.5 nM in test [2] (setting [3]) and less than 1000 nM in test [2] (setting [4]).
`C[C@@H]1CN(CC(=O)N2CC(C)(C)c3ncc(Cc4ccc(F)cc4)cc32)[C@@H](CN2CCCNC(=O)C2)CN1` [Example 46, 4-{[(2R,5R)-1-(2-{6-[(4-Fluorophenyl)methyl]-3,3-dimethyl-1H,2H,3H-pyrrolo[3,2-b]pyridin-1-yl}-2-oxoethyl)-5-methylpiperazin-2-yl]methyl}-1,4-diazepan-2-one, dihydrochloride]: the IC50 in test [1] (setting [5]) was 0.13 µM. Besides, the EC50 in test [2] (setting [3]) was 36 nM; in test [2] (setting [4]), less than 1000 nM.
Regarding `C[C@@H]1CN(CC(=O)N2CC(C)(C)c3ncc(Cc4ccc(F)cc4)cc32)[C@@H](CN2C[C@H](C)NC(=O)[C@H]2C)CN1` [Example 48, (3R,6S)-4-{[(2R,5R)-1-(2-(6-[(4-Fluorophenyl)methyl]-3,3-dimethyl-1H,2H,3H-pyrrolo[3,2-b]pyridin-1-yl}-2-oxoethyl)-5-methylpiperazin-2-yl]methyl}-3,6-dimethylpiperazin-2-one, dihydrochloride], in test [1], the inhibition at 0.04 µM was found to be 49%. The EC50 in test [2] (setting [3]) is 4.3 nM; in test [2] (setting [4]), less than 1000 nM.
Turning to `C[C@@H]1CN(CC(=O)N2CC(C)(C)c3ccc(Cc4ccc(F)cc4)cc32)[C@@H](CN2[C@H](C)COC[C@H]2C)CN1` [Example 49, 2-[(2R,5R)-2-{[(3R,5R)-3,5-Dimethylmorpholin-4-yl]methyl}-5-methylpiperazin-1-yl]-1-{6-[(4-fluorophenyl)methyl]-3,3-dimethyl-2,3-dihydro-1H-indol-1-yl]ethan-1-one, dihydrochloride], the inhibition at 0.04 µM in test [1] turned out to be 44%. For the same compound, the figures for the EC50 in test [2] (setting [3]) and in test [2] (setting [4]) were 1.1 nM and less than 1000 nM, respectively.
The corresponding values for `C[C@@H]1CN(CC(=O)N2CC(C)(C)c3ncc(Cc4ccc(F)cc4)cc32)[C@@H](CN2CCOC[C@]2(C)CO)CN1` [Example 50, 1-{6-[(4-Fluorophenyl)methyl]-3,3-dimethyl-1H,2H,3H-pyrrolo[3,2-b]pyridin-1-yl}-2-[(2R,5R)-2-{[(3S)-3-(hydroxymethyl)-3-methylmorpholin-4-yl]methyl}-5-methylpiperazin-1-yl]ethan-1-one, dihydrochloride] are 44%, 1.3 nM and less than 1000 nM.
The corresponding values for `C[C@@H]1CN(CC(=O)N2CC(C)(C)c3ncc(Cc4ccc(F)cc4)cc32)[C@@H](CN2CCOC[C@@]2(C)CO)CN1` [Example 51, 1-{6-[(4-Fluorophenyl)methyl]-3,3-dimethyl-1H,2H,3H-pyrrolo[3,2-b]pyridin-1-yl}-2-[(2R,5R)-2-{[(3R)-3-(hydroxymethyl)-3-methylmorpholin-4-yl]methyl}-5-methylpiperazin-1-yl]ethan-1-one, dihydrochloride] are 44%, 2.2 nM and less than 1000 nM.
The corresponding values for `CC(=O)N1CCN(C[C@H]2CN[C@H](C)CN2CC(=O)N2CC(C)(C)c3ncc(Cc4ccc(F)cc4)cc32)[C@H](C)C1` [Example 52, 2-[(2R,5R)-2-{[(2R)-4-Acetyl-2-methylpiperazin-1-yl]methyl}-5-methylpiperazin-1-yl]-1-{6-[(4-fluorophenyl)methyl]-3,3-dimethyl-1H,2H,3H-pyrrolo[3,2-b]pyridin-1-yl}ethan-1-one, dihydrochloride] are 49%, 1 nM and less than 1000 nM.
`C[C@@H]1CN(CC(=O)N2CC(C)(C)c3ncc(Cc4ccc(F)cc4)cc32)[C@@H](CN2CCN(c3ncccn3)C[C@H]2C)CN1` [Example 53, 1-{6-[(4-Fluorophenyl)methyl]-3,3-dimethyl-1H,2H,3H-pyrrolo[3,2-b]pyridin-1-yl}-2-[(2R,5R)-5-methyl-2-{[(2R)-2-methyl-4-(pyrimidin-2-yl)piperazin-1-yl]methyl}piperazin-1-yl]ethan-1-one, dihydrochloride]: the inhibition at 0.04 µM in test [1] was 59%. For the same compound, the EC50 in test [2] (setting [3]) is 0.61 nM; in test [2] (setting [4]) it was less than 1000 nM.
Take `C[C@@H]1CN(CC(=O)N2CC(C)(C)c3ncc(Cc4ccc(F)cc4F)cc32)[C@@H](CN2[C@H](C)COC[C@H]2C)CN1` [Example 54, 1-{6-[(2,4-Difluorophenyl)methyl]-3,3-dimethyl-1H,2H,3H-pyrrolo[3,2-b]pyridin-1-yl}-2-[(2R,5R)-2-{[(3R,5R)-3,5-dimethylmorpholin-4-yl]methyl}-5-methylpiperazin-1-yl]ethan-1-one, dihydrochloride]: the inhibition at 0.04 µM in test [1] amounted to 59%. For the same compound, the EC50 in test [2] (setting [4]) was less than 1000 nM. Further, the “EVSA-T prolif (% at concentration)” value in test [2] (at 0.001 μM) stood at 96% at.
Consider `C[C@@H]1CN(CC(=O)N2CC(C)(C)c3cnc(Cc4ccc(F)cc4)cc32)[C@@H](CN2[C@H](C)COC[C@H]2C)CN1` [Example 55, 2-[(2R,5R)-2-{[(3R,5R)-3,5-Dimethylmorpholin-4-yl]methyl}-5-methylpiperazin-1-yl]-1-{6-[(4-fluorophenyl)methyl]-3,3-dimethyl-1H,2H,3H-pyrrolo[3,2-c]pyridin-1-yl}ethan-1-one, dihydrochloride], for which, in test [1], the inhibition at 0.04 µM worked out at 59%. Moreover, the results for the EC50 in test [2] (setting [3]) and in test [2] (setting [4]) were 0.23 nM and less than 1000 nM, respectively.
